≈ marks a conversion by molar mass, not a printed value. Where “and” joins values, the source holds several entries; their conditions need not be identical. Identical values can stand only once. Counter-ions that a name gives are not always drawn. Like-named read-outs stand apart in the source and are kept apart here. Numbered stars: 1 amine (or outer) side, 2 acyl side, 3 side chain; on linkers, the order of the positions; unused ones are H or OH. Bridge positions count the residues as written; N and C are the ends. Square brackets hold non-standard residues; d marks the D form. Peptide text beside a SMILES is read from it. I, II: the chains in the order shown. Actinocin(9to1) = Cc1c2oc3c(C)ccc(C(=O)[*:1])c3nc-2c(C(=O)[*:2])c(N)c1=O; NMeV = CN[C@H](C(=O)O)C(C)C; Sar = CNCC(=O)O Bounds are passed on as bounds.

Consider 27 compounds from patent US20160331708A1 (priority 2014, published 2016).

For the assay, the system named is Bacillus subtilis 168. Nature of the assay: Antibiotic MIC tests in microtiter plates. The following applies: for effect on MIC value when combined with anthranilic acid: anthranilic acid at around 2 mM, B. subtilis; for MIC with anthranilic acid (2.2 mM): antibiotic against B. subtilis in the presence of anthranilic acid (2.2 mM); for Effect: effect of anthranilic acid (2.2 mM) on MIC of the antibiotic against B. subtilis; for effect on the MIC of streptomycin: related compounds tested for synergistic effect with streptomycin (text, Table 4 title).

[1] abbreviates: Bacillus subtilis, 168, antibiotic alone against B. subtilis (Table 2).
[2] abbreviates: antibiotic alone against B. subtilis (Table 2).
Setting [3] is: antibiotic alone against B. subtilis (Table 3).
The mark [4] stands for this setting: Bacillus subtilis, 168, antibiotic alone against B. subtilis (Table 3).
The mark [5] stands for this setting: Bacillus subtilis, 168, compound alone (Table 4).

Regarding `CCn1cc(C(=O)O)c(=O)c2ccc(C)nc21` [Nalidixic acid], the MIC under setting [1] worked out at 3.1 µg/mL (≈ 13.3 µM).
Take `CC1(C)S[C@@H]2[C@H](NC(=O)Cc3ccccc3)C(=O)N2[C@H]1C(=O)[O-].[Na+]` [Penicillin G (sodium salt), Penicillin G]: the “effect on MIC value when combined with anthranilic acid” value (from here on “effect on MIC value when combined”) is listed as “decreased”, the “MIC with anthranilic acid (2.2 mM)” value turned out to be 0.0031 µg/mL and the Effect result is on record as “Lower MIC”. Further, under setting [2], the MIC was determined as 0.0062 µg/mL. For the same compound, the MIC under setting [3] was found to be 0.0062 µg/mL.
With Actinomycin C2, the MIC under setting [2] turned out to be 0.25 µg/mL.
For `O=C(O)[C@@H]1CCCN1` (racemic) [D,L-Proline], the MIC (compound alone (Table 4)) was above 750 µg/mL.
Turning to `CO[C@H]1/C=C/O[C@@]2(C)Oc3c(C)c(O)c4c(O)c(c(/C=N/N5CCN(C)CC5)c(O)c4c3C2=O)NC(=O)/C(C)=C\C=C\[C@H](C)[C@H](O)[C@@H](C)[C@@H](O)[C@@H](C)[C@H](OC(C)=O)[C@@H]1C` [Rifampin], the “MIC with anthranilic acid (2.2 mM)” value is 0.0122 µg/mL and the Effect entry is reported as “No effect”. For the same compound, under setting [1], the MIC is 0.0122 µg/mL (≈ 0.0148 µM). Also, the MIC under setting [4] is 0.0122 µg/mL (≈ 0.0148 µM).
With `CN[C@H](CC(C)C)C(=O)N[C@H]1C(=O)N[C@@H](CC(N)=O)C(=O)N[C@H]2C(=O)N[C@H]3C(=O)N[C@H](C(=O)N[C@H](C(=O)O)c4cc(O)cc(O)c4-c4cc3ccc4O)[C@H](O)c3ccc(c(Cl)c3)Oc3cc2cc(c3O[C@@H]2O[C@H](CO)[C@@H](O)[C@H](O)[C@H]2O[C@H]2C[C@](C)(N)[C@H](O)[C@H](C)O2)Oc2ccc(cc2Cl)[C@H]1O` [Vancomycin (HCl), Vancomycin], the “effect on MIC value when combined” value is “No synergistic effect”, the “MIC with anthranilic acid (2.2 mM)” value came out at 0.156 µg/mL and the Effect result is listed as “No effect”. This compound gave an MIC (Bacillus subtilis, 168) of 0.156 µg/mL. In addition, the MIC under setting [3] was 0.156 µg/mL.
Regarding `CC1(C)S[C@@H]2[C@H](NC(=O)[C@H](N)c3ccccc3)C(=O)N2[C@H]1C(=O)O` [Ampicillin (sodium salt), Ampicillin], under setting [1], the MIC was 0.0153 µg/mL.
Take `O=C(N[C@H](CO)[C@H](O)c1ccc([N+](=O)[O-])cc1)C(Cl)Cl` [Chloramphenicol]: the “MIC with anthranilic acid (2.2 mM)” value came to 125 µg/mL and the Effect entry was “No effect”. For the same compound, the MIC under setting [1] was determined as 125 µg/mL (≈ 387 µM). Further, the MIC under setting [4] came to 125 µg/mL (≈ 387 µM).
For the compound `[H]/N=C(/N)N[C@H]1[C@H](O)[C@@H](O)[C@H](O[C@@H]2O[C@@H](C)[C@](O)(C=O)[C@H]2O[C@@H]2O[C@@H](CO)[C@H](O)[C@@H](O)[C@@H]2NC)[C@@H](N/C(N)=N\[H])[C@@H]1O` [Streptomycin (sulfate), Streptomycin], the “effect on MIC value when combined” value is on record as “decreased”, the “MIC with anthranilic acid (2.2 mM)” value came to 5 µg/mL and the Effect entry is given as “Lower MIC”. Moreover, under “75 μg/μl anthranilate”, the MIC of streptomycin came out at 15000 µg/mL and the “reduction of MIC of streptomycin” value was 50%. This compound also returned an MIC under setting [1] of 31.2 µg/mL. The MIC under setting [4] was found to be 31.2 µg/mL. The MIC under setting [5] came to 31.2 µg/mL. For the same compound, for the setting “Bacillus subtilis, 168, read-out: MIC value of streptomycin, Bacillus subtilis, no anthranilic acid (FIG. 3)”, the MIC was determined as 31.2 µg/mL. Where the note is “Bacillus subtilis, 168, read-out: MIC value of streptomycin, at 300 μg/ml anthranilic acid (FIG. 3)”, the MIC turned out to be 5 µg/mL. Moreover, the “MIC value of streptomycin” value (Bacillus subtilis, no anthranilic acid (FIG. 3)) is 30 µg/mL and 31.25 ± 0.05 µg/mL. Besides, for the setting “anthranilate at concentrations of 300 μg/μl and higher”, the “reduction in the MIC of streptomycin” value was “six-fold”. In addition, the “MIC value of Streptomycin reduced by a factor” value (anthranilic acid about 50 μg/ml in the culture) came out at 2. Besides, the “MIC value of Streptomycin reduced by a factor” value (anthranilic acid about 150 μg/ml in the culture) is 3. The “MIC value of Streptomycin reduced by a factor” value (anthranilic acid about 300 μg/ml in the culture) is listed as 6. In addition, under “combined with anthranilic acid, concentration dependent”, the “decrease of streptomycin MIC (times)” value is given as “up to 6 times”.
Consider `NC[C@H]1O[C@H](O[C@H]2[C@H](O)[C@@H](O[C@H]3O[C@H](CO)[C@@H](O)[C@H](N)[C@H]3O)[C@H](N)C[C@@H]2N)[C@H](O)[C@@H](O)[C@@H]1O` [Kanamycin (sulfate), Kanamycin], for which the “MIC with anthranilic acid (2.2 mM)” value turned out to be 31.2 µg/mL. Besides, under setting [1], the MIC turned out to be 125 µg/mL. Further, under setting [4], the MIC turned out to be 125 µg/mL.
Actinomycin C: the “effect on MIC value when combined” value was “decreased”, the “MIC with anthranilic acid (2.2 mM)” value came out at 0.039 µg/mL and the Effect entry is “Lower MIC”. Further, the MIC under setting [2] is 0.078 µg/mL. In addition, the MIC under setting [3] came out at 0.078 µg/mL.
Regarding `NC(=O)c1ccccc1N` [Anthranilic acid amide], the MIC under setting [5] is above 1500 µg/mL.
`CC[C@H]1OC(=O)[C@H](C)[C@@H](O[C@H]2C[C@@](C)(OC)[C@@H](O)[C@H](C)O2)[C@H](C)[C@@H](O[C@@H]2O[C@H](C)C[C@H](N(C)C)[C@H]2O)[C@](C)(O)C[C@@H](C)C(=O)[C@H](C)[C@@H](O)[C@]1(C)O` [Erythromycin] registered an MIC under setting [1] of 0.122 µg/mL (≈ 0.166 µM).
As for `CC1=C(C(=O)O)N2C(=O)[C@@H](NC(=O)[C@H](N)c3ccccc3)[C@H]2SC1` [Cephalexin (1H2O), Cephalexin], the Effect entry is “Lower MIC”. This compound had an MIC under setting [1] of 0.122 µg/mL (≈ 0.351 µM). Besides, under setting [4], the MIC was found to be 0.122 µg/mL (≈ 0.351 µM).
Regarding Gentamycin [Gentamycin (sulfate)], the “effect on MIC value when combined” value is listed as “decreased”, the “MIC with anthranilic acid (2.2 mM)” value was 0.625 µg/mL and the Effect result was “Lower MIC”. This compound also registered an MIC under setting [2] of 1.25 µg/mL. The MIC under setting [3] worked out at 1.25 µg/mL.
Where the note is “compound alone (Table 4)”, Benzoic acid yielded an MIC above 750 µg/mL.
`O=C(O)c1cccc(O)c1O` [2,3-dihydroxybenzoic acid]: the “effect on the MIC of streptomycin” value is “duplication of the MIC value”. Also, the MIC under setting [5] was 750 µg/mL (≈ 4870 µM).
`O=C(O)[C@@H]1CCCN1` [L-Proline]: the MIC under setting [5] was above 1500 µg/mL.
Take `Nc1cccc(C(=O)O)c1` [3-aminobenzoic acid]: the MIC under setting [5] was found to be 750 µg/mL (≈ 5470 µM).
Turning to `Oc1ccccc1O` [Catechol], the “effect on the MIC of streptomycin” value is given as “duplication of the MIC value”. For the same compound, the MIC under setting [5] was 750 µg/mL (≈ 6810 µM).
As to `CN[C@@H]1[C@@H](O[C@H]2O[C@H](CO)[C@@H](N)[C@H](O)[C@H]2O)OC2C[C@@H](N)[C@@H](O[C@H]3[C@H](O)[C@@H](O)[C@H](N)C[C@@H]3N)OC2[C@@H]1O` (stereo partly shown) [Apramycin (sulfate), Apramycin], the “MIC with anthranilic acid (2.2 mM)” value amounted to 1.953 µg/mL and the Effect result is given as “No effect”. This compound displayed an MIC under setting [1] of 1.95 µg/mL. In addition, the MIC under setting [4] stood at 1.95 µg/mL.
`O=C1O[C@H]([C@@H](O)CO)C(O)=C1O` [L-Ascorbic acid (sodium salt), L-Ascorbic acid] displayed an MIC under setting [5] above 750 µg/mL.
Same read-out and setting: with `Nc1cc(N)cc(C(=O)O)c1` [3,5-diaminobenzoic acid] the figure was above 750 µg/mL; with `Nc1ccc(C(=O)O)cc1` [4-aminobenzoic acid], 750 µg/mL (≈ 5470 µM).
In the case of `CCC[C@@H]1C[C@@H](C(=O)N[C@@H]([C@H]2O[C@H](SC)[C@H](O)[C@@H](O)[C@H]2O)[C@H](C)Cl)N(C)C1` [Clindamycin (HCl), Clindamycin], the “MIC with anthranilic acid (2.2 mM)” value turned out to be 0.244 µg/mL. In addition, the MIC under setting [1] is 0.488 µg/mL. The compound also showed an MIC under setting [4] of 0.488 µg/mL.
`Cc1c2oc3c(C)ccc(C(=O)N[C@@H]4C(=O)N[C@H](C(C)C)C(=O)N5CCC[C@H]5C(=O)N(C)CC(=O)N(C)[C@@H](C(C)C)C(=O)O[C@@H]4C)c3nc-2c(C(=O)N[C@@H]2C(=O)N[C@H](C(C)C)C(=O)N3CCC[C@H]3C(=O)N(C)CC(=O)N(C)[C@@H](C(C)C)C(=O)O[C@@H]2C)c(N)c1=O` [Actinomycin D] (I: T[dV]P[Sar][NMeV] / II: T[dV]P[Sar][NMeV]; ester I:1-I:C, II:1-II:C; linker I:N-II:N via Actinocin(9to1)): the “MIC with anthranilic acid (2.2 mM)” value is 0.156 µg/mL and the Effect result was “No effect”. Under setting [2], this compound registered an MIC of 0.156 µg/mL (≈ 0.124 µM). The MIC under setting [3] is 0.156 µg/mL (≈ 0.124 µM).
As for Neomycin [Neomycin (sulfate)], the “effect on MIC value when combined” value was “decreased”, the “MIC with anthranilic acid (2.2 mM)” value is 15.6 µg/mL and the Effect result is given as “Lower MIC”. Moreover, the MIC under setting [2] is 62.5 µg/mL. Under setting [3], this compound returned an MIC of 62.5 µg/mL.
